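Dose response: 5 concentrations. Exposure: 48 h. Format: 96-well plates. Endpoint: linear interpolation; highest concentration if not reached. TGI: concentration producing complete growth inhibition.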
Columns and labels:
Test in all cases: inhibition of tumour cell growth, NCI panel, 48 h
786-0 renal = tested on: 786-0 renal
A498 renal = tested on: A498 renal
A549 NSCLC = tested on: A549 NSCLC
ACHN renal = tested on: ACHN renal
BT-549 breast = tested on: BT-549 breast
CAKI-1 renal = tested on: CAKI-1 renal
CCRF-CEM leukemia = tested on: CCRF-CEM leukemia
COLO 205 colon = tested on: COLO 205 colon
DU-145 prostate = tested on: DU-145 prostate
EKVX NSCLC = tested on: EKVX NSCLC
HCC-2998 colon = tested on: HCC-2998 colon
HCT-116 colon = tested on: HCT-116 colon
HCT-15 colon = tested on: HCT-15 colon
HL-60(TB) leukemia = tested on: HL-60(TB) leukemia
HOP-62 NSCLC = tested on: HOP-62 NSCLC
HOP-92 NSCLC = tested on: HOP-92 NSCLC
HS 578T breast = tested on: HS 578T breast
HT29 colon = tested on: HT29 colon
IGROV1 ovarian = tested on: IGROV1 ovarian
K-562 leukemia = tested on: K-562 leukemia
KM12 colon = tested on: KM12 colon
LOX IMVI melanoma = tested on: LOX IMVI melanoma
M14 melanoma = tested on: M14 melanoma
MALME-3M melanoma = tested on: MALME-3M melanoma
MCF7 breast = tested on: MCF7 breast
MDA-MB-231 breast = tested on: MDA-MB-231 breast
MDA-MB-435 = tested on: MDA-MB-435
MDA-N = tested on: MDA-N
MOLT-4 leukemia = tested on: MOLT-4 leukemia
NCI-H226 lung = tested on: NCI-H226 lung
NCI-H23 lung = tested on: NCI-H23 lung
NCI-H460 lung = tested on: NCI-H460 lung
NCI-H522 lung = tested on: NCI-H522 lung
NCI/ADR-RES ovarian = tested on: NCI/ADR-RES ovarian
OVCAR-3 ovarian = tested on: OVCAR-3 ovarian
OVCAR-4 ovarian = tested on: OVCAR-4 ovarian
OVCAR-5 ovarian = tested on: OVCAR-5 ovarian
OVCAR-8 ovarian = tested on: OVCAR-8 ovarian
PC-3 prostate = tested on: PC-3 prostate
RXF 393 renal = tested on: RXF 393 renal
SF-268 CNS = tested on: SF-268 CNS
SF-295 CNS = tested on: SF-295 CNS
SF-539 CNS = tested on: SF-539 CNS
SK-MEL-2 melanoma = tested on: SK-MEL-2 melanoma
SK-MEL-28 melanoma = tested on: SK-MEL-28 melanoma
SK-MEL-5 melanoma = tested on: SK-MEL-5 melanoma
SK-OV-3 ovarian = tested on: SK-OV-3 ovarian
SN12C renal = tested on: SN12C renal
SNB-19 CNS = tested on: SNB-19 CNS
SNB-75 CNS = tested on: SNB-75 CNS
SW-620 colon = tested on: SW-620 colon
T-47D breast = tested on: T-47D breast
TK-10 renal = tested on: TK-10 renal
U251 CNS = tested on: U251 CNS
UACC-257 melanoma = tested on: UACC-257 melanoma
UACC-62 melanoma = tested on: UACC-62 melanoma
UO-31 renal = tested on: UO-31 renal
RPMI-8226 leukemia = tested on: RPMI-8226 leukemia

CC1(C)[C@H](C(=O)O)N2C(=O)[C@@H](NS(=O)(=O)c3ccc([N+](=O)[O-])cc3)[C@H]2S1(=O)=O
TGI (786-0 renal): > 100 µM | TGI (A498 renal): > 100 µM | TGI (A549 NSCLC): > 100 µM | TGI (ACHN renal): > 100 µM | TGI (BT-549 breast): > 100 µM | TGI (CAKI-1 renal): > 100 µM | TGI (CCRF-CEM leukemia): > 100 µM | TGI (COLO 205 colon): > 100 µM | TGI (DU-145 prostate): > 100 µM | TGI (EKVX NSCLC): > 100 µM | TGI (HCC-2998 colon): > 100 µM | TGI (HCT-116 colon): > 100 µM | TGI (HCT-15 colon): > 100 µM | TGI (HL-60(TB) leukemia): > 100 µM | TGI (HOP-62 NSCLC): > 100 µM | TGI (HOP-92 NSCLC): > 100 µM | TGI (HS 578T breast): > 100 µM | TGI (HT29 colon): > 100 µM | TGI (IGROV1 ovarian): > 100 µM | TGI (K-562 leukemia): > 100 µM | TGI (KM12 colon): > 100 µM | TGI (LOX IMVI melanoma): > 100 µM | TGI (M14 melanoma): > 100 µM | TGI (MALME-3M melanoma): > 100 µM | TGI (MCF7 breast): > 100 µM | TGI (MDA-MB-231 breast): > 100 µM | TGI (MDA-MB-435): > 100 µM | TGI (MDA-N): > 100 µM | TGI (MOLT-4 leukemia): > 100 µM | TGI (NCI-H226 lung): > 100 µM | TGI (NCI-H23 lung): > 100 µM | TGI (NCI-H460 lung): > 100 µM | TGI (NCI-H522 lung): > 100 µM | TGI (NCI/ADR-RES ovarian): > 100 µM | TGI (OVCAR-3 ovarian): > 100 µM | TGI (OVCAR-4 ovarian): > 100 µM | TGI (OVCAR-5 ovarian): > 100 µM | TGI (OVCAR-8 ovarian): > 100 µM | TGI (PC-3 prostate): > 100 µM | TGI (RXF 393 renal): > 100 µM | TGI (SF-268 CNS): > 100 µM | TGI (SF-295 CNS): > 100 µM | TGI (SF-539 CNS): > 100 µM | TGI (SK-MEL-2 melanoma): > 100 µM | TGI (SK-MEL-28 melanoma): > 100 µM | TGI (SK-MEL-5 melanoma): > 100 µM | TGI (SK-OV-3 ovarian): > 100 µM | TGI (SN12C renal): > 100 µM | TGI (SNB-19 CNS): > 100 µM | TGI (SNB-75 CNS): > 100 µM | TGI (SW-620 colon): > 100 µM | TGI (T-47D breast): > 100 µM | TGI (TK-10 renal): > 100 µM | TGI (U251 CNS): > 100 µM | TGI (UACC-257 melanoma): > 100 µM | TGI (UACC-62 melanoma): > 100 µM | TGI (UO-31 renal): > 100 µM

O=C(/C=C1\N=C(c2ccccc2)N(c2nc3ccc(Sc4ccccc4)cc3[nH]2)C1=O)/C=C/c1ccccc1
TGI (786-0 renal): > 100 µM | TGI (A498 renal): > 100 µM | TGI (A549 NSCLC): > 100 µM | TGI (ACHN renal): > 100 µM | TGI (BT-549 breast): > 100 µM | TGI (CAKI-1 renal): > 100 µM | TGI (CCRF-CEM leukemia): > 100 µM | TGI (COLO 205 colon): 30.6 µM | TGI (DU-145 prostate): > 100 µM | TGI (EKVX NSCLC): > 100 µM | TGI (HCC-2998 colon): 32.5 µM | TGI (HCT-116 colon): > 100 µM | TGI (HCT-15 colon): > 100 µM | TGI (HL-60(TB) leukemia): 54.1 µM | TGI (HOP-62 NSCLC): > 100 µM | TGI (HOP-92 NSCLC): > 100 µM | TGI (HS 578T breast): > 100 µM | TGI (HT29 colon): 92.8 µM | TGI (IGROV1 ovarian): > 100 µM | TGI (K-562 leukemia): > 100 µM | TGI (KM12 colon): > 100 µM | TGI (LOX IMVI melanoma): > 100 µM | TGI (M14 melanoma): > 100 µM | TGI (MALME-3M melanoma): > 100 µM | TGI (MCF7 breast): > 100 µM | TGI (MDA-MB-231 breast): 53.8 µM | TGI (MDA-MB-435): 33.9 µM | TGI (MDA-N): 33.6 µM | TGI (MOLT-4 leukemia): > 100 µM | TGI (NCI-H23 lung): > 100 µM | TGI (NCI-H460 lung): > 100 µM | TGI (NCI-H522 lung): 58.2 µM | TGI (NCI/ADR-RES ovarian): 67.9 µM | TGI (OVCAR-3 ovarian): > 100 µM | TGI (OVCAR-4 ovarian): > 100 µM | TGI (OVCAR-5 ovarian): > 100 µM | TGI (OVCAR-8 ovarian): > 100 µM | TGI (PC-3 prostate): > 100 µM | TGI (RPMI-8226 leukemia): 60.9 µM | TGI (RXF 393 renal): > 100 µM | TGI (SF-268 CNS): > 100 µM | TGI (SF-295 CNS): > 100 µM | TGI (SK-MEL-2 melanoma): 41.5 µM | TGI (SK-MEL-28 melanoma): > 100 µM | TGI (SK-MEL-5 melanoma): 61.3 µM | TGI (SK-OV-3 ovarian): > 100 µM | TGI (SN12C renal): > 100 µM | TGI (SNB-19 CNS): > 100 µM | TGI (SNB-75 CNS): 55.9 µM | TGI (SW-620 colon): > 100 µM | TGI (T-47D breast): 82.6 µM | TGI (TK-10 renal): 98.2 µM | TGI (U251 CNS): 81.3 µM | TGI (UACC-257 melanoma): > 100 µM | TGI (UACC-62 melanoma): 85.2 µM | TGI (UO-31 renal): > 100 µM
